# Measured values as given in US9682925B2, “Cyclopropaneamine compound” (TAKEDA PHARMACEUTICAL COMPANY LIMITED, priority 2011, dated 2017).
# Structures can show the parent of a compound that is named as a salt. Where two headings read alike, the source gives them in different places.
# Legend:
# Type in all cases: biochemical
# [1] = molecular target: T1, human LSD1(171-852) (Homo sapiens, UniProt O60341); assay: Measurement of LSD1 inhibitory activity (time-resolved fluorescence, biotin-histone H3 mono methylated K4 peptide)
# T1 construct: to give hLSD1(171-852) purified product; made in house; host or cells: Escherichia coli C43(DE3) pLysS
# Method: When the turbidity reached 600 Klett units, the culture temperature was changed to 16° C., IPTG having a final concentration of 0.5 mM was added to induce expression, and the cells were cultured further for 21 hr. The culture medium was centrifuged at 9,000 g for 10 min, and Escherichia coli pellets were recovered.
# Escherichia coli pellets in 9 L of the culture medium were suspended in 1340 mL of an extraction buffer (PBS, 5% (V/V) Glycerol), and 6700 units of Benzonase (Merck) were added. Using Branson ultrasonic disintegrator, the suspension was disrupted by ultrasonication for 3 min, and centrifuged at 33,000 g for 20 min, and the supernatant was recovered.
# (5) Measurement of LSD1 Inhibitory Activity
# After reaction at room temperature for 20 min, 1 mM 2-PCPA solution (5 μL) was added to terminate the reaction. A detection solution (800 mM potassium fluoride, 0.1% BSA) containing europium-labeled antihistone H3 antibody (Wako Pure Chemical Industries, Ltd.) and Streptavidin-XL665 (Cisbio) was further added by 5 μL, and the mixture was left standing for 60 min. A time-resolved fluorescence (excitation 320 nm, emission 615 nm, 665 nm) was measured by Envision (PerkinElmer). The LSD1 inhibitory rate (%) of the test compound was calculated by the following formula. inhibitory rate (%)=(1−(test compound count−blank)÷(control−blank)×100
# The count of the LSD1 enzyme reaction mixture under compound non-addition conditions is indicated as control, and the count under compound non-addition and LSD1 enzyme non-addition conditions is indicated as blank.
# [2] = molecular target: T2, MAO-A (Homo sapiens, UniProt P21397); assay: Measurement of MAO-A inhibitory activity (MAO-Glo Assay)
# T2 construct: purchased Sigma-Aldrich Co. LLC
# T2 sequence (P21397 1-527): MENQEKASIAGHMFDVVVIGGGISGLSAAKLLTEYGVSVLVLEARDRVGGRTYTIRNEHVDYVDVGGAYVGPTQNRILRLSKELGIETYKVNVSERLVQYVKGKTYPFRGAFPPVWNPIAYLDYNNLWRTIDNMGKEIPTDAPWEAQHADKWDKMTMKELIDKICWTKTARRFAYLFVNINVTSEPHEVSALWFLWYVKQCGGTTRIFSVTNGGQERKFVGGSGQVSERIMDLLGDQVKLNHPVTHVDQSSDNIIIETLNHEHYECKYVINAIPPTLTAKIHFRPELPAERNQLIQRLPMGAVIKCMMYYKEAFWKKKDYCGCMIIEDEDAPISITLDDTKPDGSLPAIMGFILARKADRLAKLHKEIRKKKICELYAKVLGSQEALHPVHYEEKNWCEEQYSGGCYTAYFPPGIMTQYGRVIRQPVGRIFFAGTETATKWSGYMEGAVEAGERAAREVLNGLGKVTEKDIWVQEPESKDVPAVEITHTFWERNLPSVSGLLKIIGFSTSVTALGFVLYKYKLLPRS
# Method: (1) Measurement of MAO-A Inhibitory Activity
# The MAO-A inhibitory activity evaluation described below followed the protocol of MAO-Glo (registered trademark) Assay of Promega KK.
# (§1) A test compound dissolved in 4% DMSO was added by 12.5 μL to 25 μL reaction solution (100 mM HEPES (pH 7.5), 5% glycerol) containing 400 ng of MAO-A enzyme (Sigma-Aldrich Co. LLC.), and the mixture was reacted at room temperature for 10 min. MAO substrate (Promega KK) (160 μM) was added by 12.5 μL to start the reaction. After reaction at room temperature for 60 min, Luciferine detection reagent (Promega KK) (50 μL) was added to terminate the reaction. After reaction at room temperature for 20 min with stirring, the luminescence was measured by Envision (PerkinElmer). The MAO-A inhibitory rate (%) of the test compound was calculated by the following formula. inhibitory rate (%)=(1−(test compound count−blank)÷(control−blank)×100
# The count of the MAO-A enzyme reaction mixture under compound non-addition conditions is indicated as control, and the count under compound non-addition and MAO-A enzyme non-addition conditions is indicated as blank.
# [3] = molecular target: T3, MAO-B (Homo sapiens, UniProt P27338); assay: Measurement of MAO-B inhibitory activity (MAO-Glo Assay)
# T3 construct: purchased Sigma-Aldrich Co. LLC
# T3 sequence (P27338 1-520): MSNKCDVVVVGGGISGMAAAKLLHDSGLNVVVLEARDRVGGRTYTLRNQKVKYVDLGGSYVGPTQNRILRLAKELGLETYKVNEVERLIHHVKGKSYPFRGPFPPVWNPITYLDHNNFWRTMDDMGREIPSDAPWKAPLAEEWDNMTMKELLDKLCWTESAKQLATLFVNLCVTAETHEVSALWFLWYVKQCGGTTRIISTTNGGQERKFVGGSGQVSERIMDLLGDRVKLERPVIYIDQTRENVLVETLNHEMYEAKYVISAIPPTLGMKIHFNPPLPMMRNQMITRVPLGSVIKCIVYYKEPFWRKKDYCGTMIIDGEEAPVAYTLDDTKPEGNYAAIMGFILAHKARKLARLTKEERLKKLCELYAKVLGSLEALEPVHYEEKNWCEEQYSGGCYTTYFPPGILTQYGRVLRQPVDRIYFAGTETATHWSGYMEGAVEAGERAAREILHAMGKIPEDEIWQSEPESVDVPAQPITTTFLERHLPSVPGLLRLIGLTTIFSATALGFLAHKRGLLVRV
# Method: (2) Measurement of MAO-B Inhibitory Activity
# The MAO-B inhibitory activity evaluation described below followed the protocol of MAO-Glo (registered trademark) Assay of Promega KK.
# as §1, with “glycerol, 10% DMSO)” for “glycerol)”, “MAO-B” for “MAO-A”, “(16” for “(160”
# The count of the MAO-B enzyme reaction mixture under compound non-addition conditions is indicated as control, and the count under compound non-addition and MAO-B enzyme non-addition conditions is indicated as blank.
SMILES,IC50 ([1]; read-out: LSD1 IC50 value) [µM],IC50 [2] [µM],IC50 [3] [µM],IC50 [1] [µM]
"O=C(Nc1ccc([C@@H]2C[C@H]2NCc2ccccc2)cc1)c1cccc(N2CCCCC2=O)c1 (relative stereo) [Example 33, N-{4-[trans-2-(benzylamino)cyclopropyl]phenyl}-3-(2-oxopiperidin-1-yl)benzamide]",< 0.1,> 10,> 10,
"Cc1nc(-c2cccc(C(=O)Nc3ccc([C@@H]4C[C@H]4NCC4CC4)cc3)c2)cs1 (relative stereo) [Example 101, N-(4-{trans-2-[(cyclopropylmethyl)-amino]cyclopropyl}-phenyl)-3-(2-methyl-1,3-thiazol-4-yl)benzamide]",< 0.1,> 10,> 10,
"O=C(Nc1ccc([C@@H]2C[C@H]2NCC2CC2)cc1)c1cccc(Cn2ccnc2)c1 (relative stereo) [Example 146, N-(4-{trans-2-[(cyclopropylmethyl)amino]cyclopropyl}phenyl)-3-(1H-imidazol-1-ylmethyl)benzamide hydrochloride]",< 0.1,6.7,> 10,
"CS(=O)(=O)Nc1ccc(C(=O)Nc2ccc([C@@H]3C[C@H]3NCC3CC3)cc2)cc1 (relative stereo) [Example 135, N-(4-{trans-2-[(cyclopropylmethyl)amino]cyclopropyl}phenyl)-4-[(methylsulfonyl)amino]benzamide hydrochloride]",0.1,> 10,> 10,
"O=C(Nc1ccc(C(=O)Nc2ccc([C@@H]3C[C@H]3NCC3CC3)cc2)cc1)c1ccccc1 (relative stereo) [Example 80, N-(4-{trans-2-[(cyclopropylmethyl)amino]cyclopropyl}phenyl)-4-[(phenylcarbonyl)amino]benzamide hydrochloride]",< 0.1,> 10,> 10,
"O=C(Nc1ccc([C@@H]2C[C@H]2NCC2CC2)cc1)c1ccc(-c2ccccc2Cl)cc1 (relative stereo) [Example 78, 2′-chloro-N-(4-{trans-2-[(cyclopropylmethyl)amino]cyclopropyl}phenyl)biphenyl-4-carboxamide hydrochloride]",< 0.1,> 10,> 10,
"O=C(Nc1ccc([C@@H]2C[C@H]2N2CCCC2)cc1)c1ccccc1 (relative stereo) [Example 30, N-{4-[trans-2-(pyrrolidin-1-yl)cyclopropyl]phenyl}benzamide hydrochloride]",0.58,1.7,> 10,
"CN1C2CCC1CC(N[C@@H]1C[C@H]1c1ccc(NC(=O)c3cccc(C(F)(F)F)c3)cc1)C2 (relative stereo) [Example 149, N-(4-{trans-2-[(8-methyl-8-azabicyclo[3.2.1]oct-3-yl)amino]cyclopropyl}phenyl)-3-(trifluoromethyl)benzamide dihydrochloride]",,> 10,> 10,< 0.1
"CN1CCN(c2cccc(C(=O)Nc3ccc([C@@H]4C[C@H]4NCC4CC4)cc3)c2)CC1 (relative stereo) [Example 131, N-(4-{trans-2-[(cyclopropyl-methyl)amino]-cyclopropyl}-phenyl)-3-(4-methylpiperazin-l-yl)benzamide]",< 0.1,> 10,> 10,
"Cn1cc(C(=O)Nc2ccc([C@@H]3C[C@H]3NCC3CC3)cc2)cn1 (relative stereo) [Example 163, N-(4-{trans-2-[(cyclopropylmethyl)amino]cyclopropyl}phenyl)-1-methyl-1H-pyrazole-4-carboxamide hydrochloride]",,> 10,> 10,
"O=C(Nc1ccc([C@@H]2C[C@H]2NCC2CC2)cc1)c1cccc(C(F)(F)F)c1 (relative stereo) [Example 65, N-(4-{trans-2-[(cyclopropylmethyl)amino]cyclopropyl}phenyl)-3-(trifluoromethyl)benzamide hydrochloride]",< 0.1,8.6,9.6,
"O=C(Nc1ccc([C@@H]2C[C@H]2NCC2CC2)cc1)c1ccc(-c2ccccc2)cc1 (single isomer, unassigned) [Example 166, N-(4-{(1S,2R) or (1R,2S)-2-[(cyclopropylmethyl)amino]cyclopropyl}phenyl)biphenyl-4-carboxamide hydrochloride]",,> 10,> 10,
"O=C(Nc1ccc([C@@H]2C[C@H]2NCC2CC2)cc1)c1cccc(-n2cnnn2)c1 (relative stereo) [Example 100, N-(4-{trans-2-[(cyclopropylmethyl)-amino]cyclopropyl}-phenyl)-3-(1H-tetrazol-1-yl)benzamide]",< 0.1,> 10,> 10,
"O=C(Nc1ccc([C@@H]2C[C@H]2NCCCc2ccccc2)cc1)c1ccccc1 (relative stereo) [Example 14, N-(4-{trans-2-[(3-phenyl-propyl)amino]-cyclopropyl}-phenyl)benzamide]",< 0.1,> 10,> 10,
"O=C(Nc1ccc([C@@H]2C[C@H]2NCC2CC2)cc1)c1cc(C(F)(F)F)ccc1F (relative stereo) [Example 73, N-(4-{trans-2-[(cyclopropylmethyl)amino]cyclopropyl}phenyl)-2-fluoro-5-(trifluoromethyl)benzamide hydrochloride]",< 0.1,,8.1,
"O=C(Nc1ccc([C@H]2C[C@@H]2NCC2CC2)cc1)c1ccc(-c2ccccc2)cc1 (single isomer, unassigned) [Example 165, N-(4-{(1R,2S) or (1S,2R)-2-[(cyclopropylmethyl)amino]cyclopropyl}phenyl)biphenyl-4-carboxamide hydrochloride]",,> 10,> 10,
